Data published in ChEMBL document CHEMBL1201862, “PubChem BioAssay data set” (2004).
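Where inhibition never reached the appropriate level, the endpoint shown equals the highest concentration tested. Otherwise, values were interpolated linearly from a five-concentration, 48-hour dose response in 96-well plates. The concentration for 50% growth inhibition is given as GI50.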 Active and inactive are the calls of the source. Cut-off read from the data, not from the text of the source: active = GI50 up to about 1.1 µM and inactive = higher.

What was measured:
Assay in all cases: inhibition of tumour cell growth, NCI panel, 48 h
[1] = test system: 786-0
[2] = test system: A498
[3] = test system: A549
[4] = test system: COLO 205
[5] = test system: EKVX
[6] = test system: KM12
[7] = test system: LOX IMVI
[8] = test system: Malme-3M
[9] = test system: OVCAR-4
[10] = test system: OVCAR-8
[11] = test system: SF-295
[12] = test system: SK-MEL-28
[13] = test system: UACC-257
[14] = test system: CCRF-CEM
[15] = test system: HCT-116

Measured: GI50

Cc1noc(C)c1CCCOC1COc2ccccc2OCCOCCOc2ccccc2OC1
inactive: [1] > 100 µM | [2] > 100 µM | [3] > 100 µM | [4] > 100 µM | [5] > 100 µM | [6] > 100 µM | [7] > 100 µM | [8] 80.4 µM | [9] > 100 µM | [10] > 100 µM | [11] > 100 µM | [12] > 100 µM | [13] > 100 µM

O=C1c2ccc(O)cc2C(=O)c2ccc(O)cc21
inactive: [1] 42.7 µM | [2] 38.5 µM | [3] 54.6 µM | [14] 59.3 µM | [4] > 100 µM | [5] 67.3 µM | [15] 39.4 µM | [6] 88.7 µM | [7] 58.1 µM | [8] 57.4 µM | [9] > 100 µM | [10] > 100 µM | [11] > 100 µM | [12] 78.5 µM | [13] > 100 µM

CCOC(=O)CC1=N/C(=N/c2cc(Cl)ccc2Cl)SC1
inactive: [1] > 100 µM | [2] > 100 µM | [3] > 100 µM | [14] 76.9 µM | [4] > 100 µM | [5] > 100 µM | [15] 97.9 µM | [6] > 100 µM | [7] 70.5 µM | [8] > 100 µM | [9] > 100 µM | [10] > 100 µM | [11] > 100 µM | [12] > 100 µM | [13] > 100 µM

O=C(Nc1ccc(Cl)cc1C(=O)O)c1ccc([N+](=O)[O-])cc1
inactive: [1] 13.4 µM | [2] 9.77 µM | [3] 33.7 µM | [14] 20.2 µM | [4] 18.7 µM | [5] 29.5 µM | [15] 12.2 µM | [6] 18.4 µM | [7] 19.9 µM | [8] 4.95 µM | [9] 18.6 µM | [10] 26.7 µM | [11] 23.7 µM | [12] 28.2 µM | [13] 18.6 µM

O=C(NCCCN1CCN(CCCNC(=O)c2cccc3ccccc23)CC1)c1cccc2ccccc12
inactive: [1] 44.1 µM | [2] > 100 µM | [3] > 100 µM | [14] > 100 µM | [4] > 100 µM | [5] > 100 µM | [15] 39.1 µM | [6] > 100 µM | [7] > 100 µM | [8] 57.4 µM | [9] > 100 µM | [10] > 100 µM | [11] 54.8 µM | [13] > 100 µM

Nc1c(-c2nc3ccccc3s2)[n+]([O-])c2ccccc2[n+]1[O-]
inactive: [1] 32.1 µM | [2] 33.2 µM | [3] 36.4 µM | [14] 42.6 µM | [4] 37.1 µM | [5] 51.6 µM | [15] 24.3 µM | [6] 33.2 µM | [8] 30.4 µM | [9] 42.1 µM | [10] 38.6 µM | [11] 23.6 µM | [12] 25.2 µM | [13] 30.8 µM

COc1ccc(C(=O)N2c3ccccc3N(C)n3cccc3C2CC(=O)O)cc1 (stereo not given)
inactive: [1] > 100 µM | [2] > 100 µM | [3] > 100 µM | [14] > 100 µM | [4] > 100 µM | [5] > 100 µM | [6] > 100 µM | [7] > 100 µM | [8] > 100 µM | [9] > 100 µM | [10] > 100 µM | [11] > 100 µM | [12] > 100 µM | [13] > 100 µM

C/C(=N/NC(=O)c1ccccc1O)c1ccc(/C(C)=N\NC(=O)c2ccccc2O)c2nc3cc(C)c(C)cc3nc12
inactive: [1] > 100 µM | [2] > 100 µM | [3] > 100 µM | [14] > 100 µM | [4] > 100 µM | [5] > 100 µM | [15] > 100 µM | [6] > 100 µM | [7] > 100 µM | [8] > 100 µM | [9] > 100 µM | [10] > 100 µM | [11] > 100 µM | [12] > 100 µM | [13] > 100 µM

CCc1ccc(/N=C\c2cc(OC)c(OC)c(OC)c2)cc1
inactive: [1] > 100 µM | [2] > 100 µM | [3] > 100 µM | [14] 40.7 µM | [5] > 100 µM | [15] > 100 µM | [6] > 100 µM | [7] 20.9 µM | [8] > 100 µM | [9] > 100 µM | [10] > 100 µM | [11] > 100 µM | [12] > 100 µM | [13] > 100 µM

O=C(O)CCC1CCc2cccc3occ1c23 (stereo not given)
inactive: [1] > 100 µM | [2] > 100 µM | [3] > 100 µM | [14] > 100 µM | [4] > 100 µM | [5] > 100 µM | [15] > 100 µM | [6] > 100 µM | [7] > 100 µM | [8] > 100 µM | [9] > 100 µM | [10] > 100 µM | [11] > 100 µM | [12] > 100 µM | [13] > 100 µM

CC(C)c1ccc(/C=C(\NC(=O)c2ccccc2)c2nc3ccccc3[nH]2)cc1
inactive: [1] 39.3 µM | [2] 40.6 µM | [3] 27.9 µM | [14] 34.1 µM | [4] 35.8 µM | [5] 34.7 µM | [15] 31.6 µM | [6] 32.2 µM | [7] 27.2 µM | [8] 79.3 µM | [9] 30.2 µM | [10] 32.4 µM | [12] > 10 µM | [13] 35.2 µM

c1ccc(C2C3=C(Nc4ncnn42)c2ccccc2C3)cc1 (stereo not given)
inactive: [1] 25.4 µM | [2] 51.2 µM | [3] 34.5 µM | [14] 15.5 µM | [4] 11 µM | [5] 87.5 µM | [15] 12 µM | [6] 4.68 µM | [7] 15.6 µM | [8] 15.6 µM | [9] 95.9 µM | [10] 30.8 µM | [11] 8.02 µM | [13] > 100 µM

O=C1CC23CC(=O)CC2(C1)c1ccccc1C3=O (stereo not given)
inactive: [1] > 100 µM | [3] > 100 µM | [14] > 100 µM | [4] > 100 µM | [5] > 100 µM | [15] > 100 µM | [6] > 100 µM | [7] > 100 µM | [8] > 100 µM | [10] > 100 µM | [11] > 100 µM | [12] > 100 µM | [13] > 100 µM

COc1ccc(/C=C/C(=O)c2c(-c3ccccc3)nn(C)c(=O)c2N2CCCCC2)cc1
inactive: [1] 14.2 µM | [3] 16.8 µM | [14] 9.95 µM | [4] 16.7 µM | [5] 11.7 µM | [15] 7.31 µM | [7] 14.7 µM | [10] 19.5 µM | [11] 21.6 µM | [12] 14.9 µM
